Like-named read-outs stand apart in the source and are kept apart here.

For assay [1], the target named is T1, HIV integrase (Human immunodeficiency virus type 1 group M subtype B, UniProt P04585). Kind of assay: biochemical. To be noted: read-out: Inhibition of 3' processing activity (IC50).
The target in assay [2] is T1, HIV integrase. In words: biochemical. The note with it: read-out: Inhibition of strand transfer (IC50).
The target of assay [3] is HIV reverse transcriptase (Human immunodeficiency virus type 1 group M subtype B, UniProt P03366). Kind of assay: Reverse transcriptase scintillation proximity assay (Example 4, Table 2). Type of assay: biochemical. The note with it: for remaining activity at 10 µM: 0.05 h, 10 μM inhibitor, relative to dimethyl sulfoxide = 100%, read-out: % RT activity remaining at 10 μM; for IC50: read-out: IC50 (RT activity). As to the method:
Reverse transcriptase ("RT") activity is measured using a scintillation proximity assay kit available from Amersham Life Sciences, Inc., which uses a biotin/streptavidin bead capture system. RNA-dependent polymerase activity is measured using purified […] and a synthetic 17mer/50mer RNA-DNA template-primer containing biotin at the 5' end of the DNA. The template-primer, buffer, dNTP, and inhibitor are incubated for 10 minutes at 37° C. before the RT is added. The final 100 μl reaction mixture contains: 39 nm of template primer, buffer (40 mM tris HCl at pH 8.0, 10 mM MgCl2, 60 mM KCl, 10 mM dithiothreitol); 75 nM of each dNTP except dTTP; 25 nM dTTP and 35 nM tritium labeled d*TTP; 10 μM inhibitor; and 1.0-2.0 μg of RT. After three minute incubation, the reaction is quenched with 40 μl of 0.56M EDTA. Then 10 μl of streptavidin SPA beads (in suspension) are added and incubated at 37° C. for 10 minutes. Finally, 850 μl of a buffer containing 10 mM Tris HCl pH 7.4 and 0.15M NaCl is added. The signal is produced by biotinylated polymers incorporating d*TTP binding to the streptavidin beads which stimulate the scintillant. The amount of d*TTP incorporated in the polymer is measured with a scintillation counter.
Compounds showing good inhibition will give a low number of counts/min (cpm). This number is related to a standard, dimethyl sulfoxide, which is given an arbitrary 100% relative activity. All cpm data in a single run are given a percent of this standard.
(In a scintillation proximity assay essentially only radioactivity close to the scintillant gives light.)

A word on the IC50: it is the concentration at which inhibition is half-maximal. Consider `O=C(Nc1ccc2c(O)c(N=Nc3ccccc3)c(S(=O)(=O)O)cc2c1)Nc1ccc2c(O)c(N=Nc3ccccc3)c(S(=O)(=O)O)cc2c1` [Compound 62], for which the IC50 came out at 400 nM at HIV integrase [1] and 500 nM at HIV integrase [2].

For `CCOC(=O)c1c[nH]nc1N=Nc1c(S(=O)(=O)O)cc2cc(NC(=O)Nc3ccc4c(O)c(N=Nc5n[nH]cc5C(=O)OCC)c(S(=O)(=O)O)cc4c3)ccc2c1O` [Compound 64], the IC50 at HIV integrase [1] and on HIV integrase [2] was over 3000 nM in each case.

With `O=C(Nc1ccc2c(O)c(N=Nc3ncn[nH]3)c(S(=O)(=O)O)cc2c1)Nc1ccc2c(O)c(N=Nc3ncn[nH]3)c(S(=O)(=O)O)cc2c1` [Compound 65], the IC50 at HIV integrase [1] came out at 800 nM; at HIV integrase [2] it was 500 nM.

On to `COc1cc(N=Nc2c(S(=O)(=O)O)cc3cc(NC(=O)Nc4ccc5c(O)c(N=Nc6cc(OC)c(OC)c(OC)c6)c(S(=O)(=O)O)cc5c4)ccc3c2O)cc(OC)c1OC` [Compound 66], for which the figures for the IC50 at HIV integrase [1] and at HIV integrase [2] were 800 nM and 500 nM, respectively.

For the compound `O=C(Nc1ccc2c(O)c(N=Nc3ccc(C(=O)O)cc3)c(S(=O)(=O)O)cc2c1)Nc1ccc2c(O)c(N=Nc3ccc(C(=O)O)cc3)c(S(=O)(=O)O)cc2c1` [Compound 67], the IC50 on HIV integrase [1] worked out at 90 nM; at HIV integrase [2] it was 250 nM.

Take `O=C(O)CCc1ccc(N=Nc2c(S(=O)(=O)O)cc3cc(NC(=O)Nc4ccc5c(O)c(N=Nc6ccc(CCC(=O)O)cc6)c(S(=O)(=O)O)cc5c4)ccc3c2O)cc1` [Compound 68]: the IC50 on HIV integrase [1] and at HIV integrase [2] was 400 nM throughout.

As for `O=C(Nc1ccc2c(O)c(N=Nc3ccc(F)cc3)c(S(=O)(=O)O)cc2c1)Nc1ccc2c(O)c(N=Nc3ccc(F)cc3)c(S(=O)(=O)O)cc2c1` [Compound 69], the IC50 was determined as 700 nM on HIV integrase [1] and 900 nM on HIV integrase [2].

With `O=C(Nc1ccc2c(O)c(N=Nc3ccc(Cl)cc3)c(S(=O)(=O)O)cc2c1)Nc1ccc2c(O)c(N=Nc3ccc(Cl)cc3)c(S(=O)(=O)O)cc2c1` [Compound 70], the IC50 at HIV integrase [1] and at HIV integrase [2] was over 3000 nM each time.

For the compound `O=C(Nc1ccc2c(O)c(N=Nc3ccc(I)cc3)c(S(=O)(=O)O)cc2c1)Nc1ccc2c(O)c(N=Nc3ccc(I)cc3)c(S(=O)(=O)O)cc2c1` [Compound 71], the values for the IC50 on HIV integrase [1] and on HIV integrase [2] were 900 nM and 1000 nM, respectively.

As for `CC(=O)Nc1ccc(N=Nc2c(S(=O)(=O)O)cc3cc(NC(=O)Nc4ccc5c(O)c(N=Nc6ccc(NC(C)=O)cc6)c(S(=O)(=O)O)cc5c4)ccc3c2O)cc1` [Compound 72], the IC50 on HIV integrase [1] came out at 1000 nM; on HIV integrase [2] it was 500 nM.

For the compound `COc1ccc(N=Nc2c(S(=O)(=O)O)cc3cc(NC(=O)Nc4ccc5c(O)c(N=Nc6ccc(OC)cc6)c(S(=O)(=O)O)cc5c4)ccc3c2O)cc1` [Compound 73], the IC50 at HIV integrase [1] is 1000 nM; on HIV integrase [2], 600 nM.

For the compound `C=Cc1ccc(N=Nc2c(S(=O)(=O)O)cc3cc(NC(=O)Nc4ccc5c(O)c(N=Nc6ccc(C=C)cc6)c(S(=O)(=O)O)cc5c4)ccc3c2O)cc1` [Compound 74], the results for the IC50 on HIV integrase [1] and on HIV integrase [2] were 2000 nM and 1500 nM, respectively.

Take `O=C(O)Cc1ccc(N=Nc2c(S(=O)(=O)O)cc3cc(NC(=O)C(=O)Nc4ccc5c(O)c(N=Nc6ccc(CC(=O)O)cc6)c(S(=O)(=O)O)cc5c4)ccc3c2O)cc1` [Compound 93]: the figures for the IC50 on HIV integrase [1] and on HIV integrase [2] were 900 nM and 500 nM, respectively.

As to `O=C(O)CCc1ccc(N=Nc2c(S(=O)(=O)O)cc3cc(NC(=O)C(=O)Nc4ccc5c(O)c(N=Nc6ccc(CCC(=O)O)cc6)c(S(=O)(=O)O)cc5c4)ccc3c2O)cc1` [Compound 94], the IC50 came to 1000 nM at HIV integrase [1] and 400 nM on HIV integrase [2].

For the compound `O=C(O)CCCc1ccc(N=Nc2c(S(=O)(=O)O)cc3cc(NC(=O)C(=O)Nc4ccc5c(O)c(N=Nc6ccc(CCCC(=O)O)cc6)c(S(=O)(=O)O)cc5c4)ccc3c2O)cc1` [Compound 95], the IC50 was determined as 400 nM at HIV integrase [1] and 700 nM at HIV integrase [2].

Consider `O=C(Nc1ccc2c(O)c(N=Nc3cccc(C(=O)O)c3)c(S(=O)(=O)O)cc2c1)C(=O)Nc1ccc2c(O)c(N=Nc3cccc(C(=O)O)c3)c(S(=O)(=O)O)cc2c1` [Compound 96], for which the IC50 on HIV integrase [1] amounted to 500 nM; on HIV integrase [2] it was 400 nM.

For `O=C(O)CC(C(=O)O)c1ccc(N=Nc2c(S(=O)(=O)O)cc3cc(NC(=O)C(=O)Nc4ccc5c(O)c(N=Nc6ccc(C(CC(=O)O)C(=O)O)cc6)c(S(=O)(=O)O)cc5c4)ccc3c2O)cc1` (centres unmarked) [Compound 97], the results for the IC50 on HIV integrase [1] and at HIV integrase [2] were 500 nM and 1000 nM, respectively.

For `COc1cc(N=Nc2c(S(=O)(=O)O)cc3cc(NC(=O)C(=O)Nc4ccc5c(O)c(N=Nc6cc(OC)c(C(=O)O)cc6Cl)c(S(=O)(=O)O)cc5c4)ccc3c2O)c(Cl)cc1C(=O)O` [Compound 100], the IC50 on HIV integrase [1] is 400 nM; at HIV integrase [2] it was 700 nM.

The remaining activity is the activity still measured, relative to the control. With `Cc1ccc(CO)cc1N=Nc1c(S(=O)(=O)O)cc2cc(NC(=O)c3ccc(C(=O)Nc4ccc5c(O)c(N=Nc6cc(CO)ccc6C)c(S(=O)(=O)O)cc5c4)cc3)ccc2c1O` [Compound 180], the remaining activity at 10 µM in assay [3] amounted to 45%.

Regarding `O=C(Nc1ccc2c(O)c(N=Nc3ccc(Cl)cc3)c(S(=O)(=O)O)cc2c1)c1ccc(C(=O)Nc2ccc3c(O)c(N=Nc4ccc(Cl)cc4)c(S(=O)(=O)O)cc3c2)cc1` [Compound 181], the remaining activity at 10 µM in assay [3] came out at 43%.

For `O=C(Nc1ccc2c(O)c(N=Nc3ccc(Br)cc3Br)c(S(=O)(=O)O)cc2c1)c1ccc(C(=O)Nc2ccc3c(O)c(N=Nc4ccc(Br)cc4Br)c(S(=O)(=O)O)cc3c2)cc1` [Compound 182], the remaining activity at 10 µM in assay [3] is 35%.

Take `Cc1cc2nc(N=Nc3c(S(=O)(=O)O)cc4cc(NC(=O)c5ccc(C(=O)Nc6ccc7c(O)c(N=Nc8nc9cc(C)c(C)cc9[nH]8)c(S(=O)(=O)O)cc7c6)cc5)ccc4c3O)[nH]c2cc1C` [Compound 183]: the remaining activity at 10 µM in assay [3] worked out at 36%.

Regarding `O=c1c(Nc2ccc3c(O)cc(S(=O)(=O)O)cc3c2)c(Nc2ccc3c(O)cc(S(=O)(=O)O)cc3c2)c1=O` [Compound 184], the IC50 in assay [3] turned out to be 1000 nM.

On to `O=C(O)/C=C/c1ccc(N=Nc2c(S(=O)(=O)O)cc3cc(Nc4c(Nc5ccc6c(O)c(N=Nc7ccc(/C=C/C(=O)O)cc7)c(S(=O)(=O)O)cc6c5)c(=O)c4=O)ccc3c2O)cc1` [Compound 185], for which the remaining activity at 10 µM in assay [3] came out at 0.6%.

Consider `O=C(O)c1ccc(N=Nc2c(S(=O)(=O)O)cc3cc(Nc4c(Nc5ccc6c(O)c(N=Nc7ccc(C(=O)O)cc7)c(S(=O)(=O)O)cc6c5)c(=O)c4=O)ccc3c2O)cc1` [Compound 186], for which the remaining activity at 10 µM in assay [3] worked out at 0.5%.

With `O=C(O)Cc1ccc(N=Nc2c(S(=O)(=O)O)cc3cc(Nc4c(Nc5ccc6c(O)c(N=Nc7ccc(CC(=O)O)cc7)c(S(=O)(=O)O)cc6c5)c(=O)c4=O)ccc3c2O)cc1` [Compound 187], the remaining activity at 10 µM in assay [3] amounted to 0.3%.

With `O=C(O)CCc1ccc(N=Nc2c(S(=O)(=O)O)cc3cc(Nc4c(Nc5ccc6c(O)c(N=Nc7ccc(CCC(=O)O)cc7)c(S(=O)(=O)O)cc6c5)c(=O)c4=O)ccc3c2O)cc1` [Compound 188], in assay [3], the remaining activity at 10 µM is 0.3%.

Turning to `O=C(O)CCCc1ccc(N=Nc2c(S(=O)(=O)O)cc3cc(Nc4c(Nc5ccc6c(O)c(N=Nc7ccc(CCCC(=O)O)cc7)c(S(=O)(=O)O)cc6c5)c(=O)c4=O)ccc3c2O)cc1` [Compound 189], the remaining activity at 10 µM in assay [3] came out at 1%.

`O=C(O)c1cccc(N=Nc2c(S(=O)(=O)O)cc3cc(Nc4c(Nc5ccc6c(O)c(N=Nc7cccc(C(=O)O)c7)c(S(=O)(=O)O)cc6c5)c(=O)c4=O)ccc3c2O)c1` [Compound 190]: in assay [3], the remaining activity at 10 µM is 0.5%.

Consider `O=C(O)CC(C(=O)O)c1ccc(N=Nc2c(S(=O)(=O)O)cc3cc(Nc4c(Nc5ccc6c(O)c(N=Nc7ccc(C(CC(=O)O)C(=O)O)cc7)c(S(=O)(=O)O)cc6c5)c(=O)c4=O)ccc3c2O)cc1` (centres unmarked) [Compound 191], for which the remaining activity at 10 µM in assay [3] was found to be 0.3%.

On to `Cc1cc(C(=O)O)ccc1N=Nc1c(S(=O)(=O)O)cc2cc(Nc3c(Nc4ccc5c(O)c(N=Nc6ccc(C(=O)O)cc6C)c(S(=O)(=O)O)cc5c4)c(=O)c3=O)ccc2c1O` [Compound 192], for which the remaining activity at 10 µM in assay [3] amounted to 0.3%.

With `COc1cc(C(=O)O)ccc1N=Nc1c(S(=O)(=O)O)cc2cc(Nc3c(Nc4ccc5c(O)c(N=Nc6ccc(C(=O)O)cc6OC)c(S(=O)(=O)O)cc5c4)c(=O)c3=O)ccc2c1O` [Compound 193], in assay [3], the remaining activity at 10 µM was determined as 0.4%.

On to `O=C(O)c1c(F)c(F)c(N=Nc2c(S(=O)(=O)O)cc3cc(Nc4c(Nc5ccc6c(O)c(N=Nc7c(F)c(F)c(C(=O)O)c(F)c7F)c(S(=O)(=O)O)cc6c5)c(=O)c4=O)ccc3c2O)c(F)c1F` [Compound 194], for which, in assay [3], the IC50 was determined as 440 nM.

Regarding `O=c1c(Nc2ccc3cc(S(=O)(=O)O)cc(O)c3c2)c(Nc2ccc3cc(S(=O)(=O)O)cc(O)c3c2)c1=O` [Compound 198], the remaining activity at 10 µM in assay [3] came out at 37%.

In the case of `O=C(O)/C=C/c1ccc(N=Nc2c(S(=O)(=O)O)cc3ccc(Nc4c(Nc5ccc6cc(S(=O)(=O)O)c(N=Nc7ccc(/C=C/C(=O)O)cc7)c(O)c6c5)c(=O)c4=O)cc3c2O)cc1` [Compound 199], the remaining activity at 10 µM in assay [3] came out at 1.2%.

Source of the values: patent publication US6140368A, “Naphthols useful in antiviral methods” (The Regents of the University of California, priority 1998, dated 2000).
